Patent US20160367457A1, “CAPRYLOYL ALANINE ETHYLESTER AS A PENETRATION ENHANCER” (BASF SE, priority 2014, published 2016)
Like-named read-outs stand apart in the source and are kept apart here.

Tests used:
[1] = Penetration study with the enhancer applied directly to the skin (preincubation), Franz cells, radiolabeled markers from W/O formulation 1
Description: The aim of the present study was to determine the potency of three test substances (one being the closest prior art penetration enhancer) to act as skin permeation enhancer in cosmetic formulations: • Dimethyl isosorbide (DMI) a well-known penetration enhancer—used in cosmetics • Penetration Enhancer 1 (PE1)—capryloyl alanine ethylester • Penetration Enhancer 2 (PE2)—closest prior art molecule dodecyloyl alanine ethylester
The tests were performed by an independent test institute specialized in penetration testing. […] The skin was pre-incubated with the selected penetration enhancers (DMI, PE1 and PE2) and after incubation time of 30 min formulation was removed from the skin surface and formulation 1 spiked with radiolabeled ^3H-caffeine or ^3H-Vitamin E acetate was applied.
The impact of the three penetration enhancers on the skin absorption rate of caffeine and Vitamin E acetate (representative hydrophilic and lipophilic cosmetic actives, respectively) incorporated into a w/o formulation was investigated. Radiolabeled caffeine and Vitamin E acetate were used as markers. The in vitro skin permeation studies were performed with dermatomized human skin (approximately 500 μm in thickness) over a period of 24 h in triplicate. Samples from the acceptor compartment were taken at four sampling times (1, 3, 6 and 24 h) to screen the permeation enhancement effect.
The transdermal absorption of the test compounds ^3H-caffeine and ^3H-Vitamin E acetate was monitored by measuring the amount of radio labeled substances in the acceptor medium.
The test compounds were quantified by liquid scintillation counting.
In accordance to the SCCP Guidelines of the European Commission the excised human skin from surgery is an appropriate in vitro test system to simulate the permeation and penetration processes of a compound into and across human skin under in vivo conditions.
For the penetration study, the human skin (female abdomen skin) of one donor which was dermatomized to a thickness of 500±100 μm was used and tests were conducted in triplicate. Full-thickness skin was prepared from the skin biopsies and stored at −20° C. […] The skin was used immediately after thawing. Repeated freeze-thaw cycles were avoided.
Formulation 1 (without penetration enhancer) was spiked with radiolabeled ^3H-caffeine (specific activity: 60 Ci/mmol) and ^3H-Vitamin E acetate (specific activity: 50 Ci/mmol) and applied as control directly to the skin. The radio labeled samples were prepared as follows: Formulation 1 was spiked with either radiolabeled ^3H-caffeine or ^3H-Vitamin E acetate resulting in 2960000 cpm/50 μl or 1264557 cpm/50 μl, respectively. One of the three different penetration enhancers (DMI, PE1 and PE2) was applied to the skin prior to the application of the radioactively spiked W/O-formulation.
Krebs Ringer buffer (KRB, pH=7.4) was prepared according to an internal standard operation procedure. KRB was used as the acceptor medium for ^3H-caffeine. For ^3H-Vitamin E acetate, KRB supplemented with 2% bovine serum albumin (BSA) was used as the acceptor medium. Solutions of ^3H-caffeine and ^3H-Vitamin E acetate were used to validate the detection method and to assess linearity.
(§1) Permeation study was performed in four fold determination with the test and the reference item at human skin. For the transport studies the dermatomized skin was cut with a punch of 24 mm diameter and the thickness of the skin was measured at five points for each sample. Subsequently the skin pieces were fastened on cylindrical glass Franz cells which are employed as diffusion chambers. The lower (acceptor) chamber has a volume of approximately 12 ml, while the volume of the upper (donor) chamber is variable. The skin was inserted with the dermal layer facing downwards so that the skin's corneous layer is uppermost.

[2] = Penetration study with 5% enhancer incorporated into W/O formulation
Description: as §1
PE2 (C12) which is solid at room temperature, was gently melted in a water bath (at 35 to 40° C.) and applied as liquid. After 30 min of incubation the liquid penetration enhancers were gently removed with cotton balls. In the case of PE2 which solidified on the skin, the solid film was removed with a pincer. Thereafter 50 μl of the formulations were applied at the surface of the skin. The acceptor medium was thermostated at 32° C. and continuously stirred at a rate of 400 rpm. The diffusion area of skin was approximately 1.8 cm^2. Permeation through the skin into the acceptor medium was monitored over a period of 24 hours. The acceptor medium was sampled at 4 different time points, after 1, 3, 6 and 24 hours, by withdrawing samples of 200 μl. After withdrawing a sample volume, the acceptor medium was refilled with pre-warmed KRB/KRB+2% BSA. The concentration of active ingredients in the acceptor chamber was corrected to take the dilution introduced by sampling into account. Taken samples were mixed with 210 μl or 500 μl of scintillation cocktail for at least 1 hour at 200 rpm and radioactivity measured by scintillation counting.
The described study was partly repeated in a similar experimental setup with three test substances to act as skin permeation enhancer when incorporated into the cosmetic formulation and not applied directly to the skin: • Dimethyl isosorbide (DMI) a well-known penetration enhancer—used in cosmetics • Penetration Enhancer 1 (PE1)—capryloyl alanine ethylester • Penetration Enhancer 2 (DGME)—prior art penetration enhancer Transcutol (Gattefossee), diethylene glycol mono ethyl ether
Formulation 1 (W/O formulation) served as a basic formulation and as a reference without any penetration enhancer. This time the skin was not pre-incubated with the selected penetration enhancers (DMI, PE1 and DGME), but 5% of the respective penetration enhancer was incorporated into formulation 1 and the resulting formulations were spiked once again with radiolabeled ^3H-caffeine or ^3H-Vitamin E acetate.

[3] = Hansen Solubility Parameters (HSP) distance to the stratum corneum; type: physicochemical
Description: Capryloyl alanine ethyl ester turned out to have a smaller Hansen Solubility Parameters (HSP) distance to the stratum corneum than well-known and established references like DMI and ethyldiethylenglycol which indicates a good potential as skin penetration enhancer. Hansen Solubility Parameters are a key indicator for good partitioning into the stratum corneum provided the molecule is liquid at RT and has a small enough molecular volume.

[4] = Penetration of the penetration enhancer itself through the skin; type: in vitro ADME
Description: Furthermore, capryloyl-alanine ethylester can be metabolized in the skin thereby contributing to an improved toxicological profile.

[5] = after 24 hours, skin pre-incubated 30 min with 20 μl enhancer, then W/O formulation 1 with 3H-caffeine, n = 3
[6] = after 24 hours, versus reference without enhancer, preincubation, n = 3
[7] = at 24 hours, skin pre-incubated 30 min with 20 μl enhancer, then W/O formulation 1 with 3H-Vitamin E acetate, n = 3
[8] = at 24 hours, versus reference without enhancer, preincubation, n = 3
[9] = preincubation, 24 h detection time
[10] = preincubation, caffeine in w/o formulation, 24 h

Row | Effect on transport of caffeine compared to the reference formulation without any enhancer [2] | Average cumulative transport of 3H-caffeine ([2]; human, 24 h, 5 %, pH 7.4) | Enhancement Ratio for 3H-caffeine ([2]; human, 24 h, 5 %, pH 7.4) | SMILES | Average cumulative transport of 3H-caffeine [1, 5] | Enhancement Ratio for 3H-caffeine [1, 6] | Average cumulative transport of 3H-Vitamin E acetate [1, 7] | Enhancement Ratio for 3H-Vitamin E acetate [1, 8] | Effect on transport of Vitamin E acetate [1, 9] | Caffeine transport compared to the control without any penetration enhancer [1, 10] | further results
1 | – | – | – | CCCCCCCCCCCC(=O)N[C@@H](C)C(=O)OCC [PE2, dodecyloyl alanine ethylester] | 262929 dpm/cm^2 | 3.11 | 1814 dpm/cm^2 | 0.70 | reduced the transport | approximately 3 times | –
2 | slightly enhanced the transport | 278.404 cpm/cm2 | 1.12 | CCOCCOCCO [DGME, diethylene glycol mono ethyl ether] | – | – | – | – | – | – | –
3 | – | – | – | CO[C@H]1CO[C@H]2[C@@H]1OC[C@H]2OC [DMI, Dimethyl isosorbide] | 203120 dpm/cm^2 | 2.40 | 2578 dpm/cm^2 | 1.01 | only a slight penetration enhancing effect | around twice | Average cumulative transport of 3H-caffeine ([2]; at 24 hours, 5% enhancer incorporated into w/o formulation, n = 4): 212.435 cpm/cm2; Enhancement Ratio for 3H-caffeine ([2]; at 24 hours, 5% enhancer incorporated, versus reference formulation 1 without enhancer, n = 4): 0.86; Effect on transport of caffeine compared to the reference formulation without any enhancer ([2]; enhancer incorporated into W/O formulation): slightly decreased transport
4 | most effective permeation enhancer | 342.593 cpm/cm2 | 1.38 | CCCCCCCC(=O)N[C@@H](C)C(=O)OCC [PE1, capryloyl alanine ethylester] | – | – | – | – | – | – | Effect on transport of Vitamin E acetate [1]: only a slight penetration enhancing effect; Average cumulative transport of 3H-Vitamin E acetate ([1]; female, human, 24 h, pH 7.4): 2712 dpm/cm^2; Average cumulative transport of 3H-caffeine ([1]; female, human, 24 h, pH 7.4): 414024 dpm/cm^2; Caffeine transport compared to the control without any penetration enhancer ([1]; female, human, 24 h, pH 7.4): approximately 5 times; Enhancement Ratio for 3H-Vitamin E acetate ([1]; female, human, 24 h, pH 7.4): 1.06; Enhancement Ratio for 3H-caffeine ([1]; female, human, 24 h, pH 7.4): 4.89; Penetration of Vitamin E acetate with PE1 in comparison to PE2 ([1]; female, human, 24 h, pH 7.4): 1.5 fold; HSP distance to the stratum corneum compared with DMI and ethyldiethylenglycol [3]: smaller; Penetration of the enhancer itself through the skin compared with DMI [4]: lesser degree than DMI
